{"source": "patent US9011853B2", "about": "“B7-H4 fusion proteins and methods of use thereof” (Amplimmune, Inc., priority 2009, dated 2015)", "key": {"MRL/lpr mice": {"system": "MRL/lpr mice", "experiment": "MRL/lpr lupus mouse model, anti-dsDNA autoantibody ELISA", "format": "in vivo", "details": "individual MRL/lpr mouse, plasma diluted 1:2000", "method": "MRL/lpr mice at 4 weeks of age were used in this experiment. Animals were tagged with metal tags on their right ears for identification. […] In the proof-of-concept study, combination treatments with recombinant murine B7-H4-Ig and CTX were tested. Mice received single or combination treatment of murine B7-H4-Ig (Lot#DEV-110-5-006) at 5 mg/kg with or without CTX at 50 mg/kg via IP injection, once every 2 weeks (FIG. 59). Murine B7-H4-Ig dosing regimen at 5 mg/kg (100 μg/mouse/injection), twice a week, was chosen based on in vivo studies of monoclonal antibody and fusion proteins. […] Blood samples ([…]) were taken from the submandibular vein (ARC SOP 8050.02.08) 3 days before the protein treatment and the every other week during and after treatments. Blood samples were collected in Microtainer® Blood Collection Tubes, and plasma was harvested from the supernatant of blood sample after centrifugation and stored at −80° C. freezer until use.\nA positive anti-dsDNA autoantibody control was generated by pooling plasma from 5 aged MRL/lpr mice, approximately 8 months of age. The positive control plasma was aliquoted and stored at −80° C. freezer before use.\nThe dsDNA solution (10 mg/mL) was first generated by dissolving salmon testes DNA in PBS at 37° C. in a water bath followed by filtration through a 0.45 μm membrane filter. The dsDNA solution was aliquoted and stored at −80° C. before use.\nOn the day prior to the autoantibody ELISA, 100 μL of the dsDNA stock solution was first added to 10 mL of PBS resulting in a final concentration of 100 μg/ml. […] of the diluted dsDNA was then added to each well of Immulon 2HB 96-well flat bottom microtiter plates. Plates were placed in a humidified incubator at 37° C. without lids for overnight coating. Plates were washed 4 times with 300 μL of PBS/T [0.1% (v/v) Tween-20 (polysorbate 20) in PBS] using a microtiter plate washer (hydroFLEX, TECAN. Software: HydroControl) and then blocked with 200 μL of blocking buffer (10% fetal bovine serum in PBS) at room temperature for at least 1 h followed by 4 washes with 300 μL of PBS/T. The negative control (normal Balb/C mouse plasma, 1:2000 dilution), positive controls (1:5000, 1:10000, 1:20000 dilutions), and samples (1:2000 dilution) were diluted with blocking buffer. Next, 100 μL of each diluted control and sample was added to corresponding wells (duplicate wells) and incubated at room temperature for 2 h or at 4° C. overnight followed by 4 washes with 300 μL of PBS/T. For detection, 100 μL of anti-mouse IgG-HRP (Sigma, A9309, diluted to 1:10000 in blocking buffer) was added to each well and the plate was incubated at room temperature for 1 h followed by 4 washes with 400 μL of PBS/T.\nLater, 100 μL of room temperature, pre-warmed TMB Substrate Reagent was added to each well. When the color developed optimally (about 10 min), 100 μL of stop solution (1% sulfuric acid) was added. The plate was then read for absorbance at 450 nm (OD450) using a microtiter plate reader (SPECTRAmax, Molecular Devices. Software: SoftMax Pro5.2).\nAll the blood samples were analyzed at the end of the study. The OD450 value of test samples was normalized relatively to the internal positive control at the 1:10000 dilution. The relative value rather than the absolute Ab concentration was used for comparison.\nFemale MRL/lpr mice at age of 4 weeks were divided into 4 groups (FIG. 59): vehicle, CTX alone, murine B7-H4-Ig alone and CTX plus murine B7-H4-Ig combination treatment (Combo). CTX was given IP, 50 mg/kg, once every 2 weeks. Murine B7-H4-Ig was administrated IP, 100 μg (5 mg/kg), and twice every week. The Combo group received CTX injection every 2 weeks and murine B7-H4-Ig 2 times every week at 5 mg/kg. Mice were treated for 7 weeks.\nPlasma was collected from MRL/lpr mice pre-treatment (4 wk) and periodically up to 21 weeks of age."}, "DBA/1 mice [1]": {"system": "DBA/1 mice", "experiment": "Therapeutic CIA study AA#79 (female mice), disease score", "format": "in vivo, mouse", "method": "(§1) DBA/1 mice (10 per group) aged 7-9 weeks were used for the CIA model. Mice from several vendors (Jackson Laboratories, Harlan Laboratories, and Taconic Farms) were tested and it was determined that Taconic mice are most appropriate for the CIA studies. Taconic mice develop more consistent and severe disease symptoms and show continued disease progression, while mice from the other vendors often show stable, less severe disease, even in the absence of treatment. female (F) mice in AA#79 and male (M) mice in AA#80, were tested to determine which gender to use in future experiments.\n(§2) On the day before the study is initiated, the hair on the right flank of each mouse was removed using an electric clipper. A metal identification tag was placed on the right ear of each mouse. On Day 0, mice were immunized with 100 μL of chicken collagen type II/Complete Freund's Adjuvant (CII/CFA) emulsion in the right flank. On Day 20, the hair on the left flank of each mouse was removed using an electric clipper, and on Day 21, mice were immunized with 100 μL of chicken collagen type II/Incomplete Freund's Adjuvant (CII/IFA) emulsion in the left flank. Pre-filled syringes of CII/CFA and CII/IFA emulsion purchased from Hooke Laboratories were used to ensure consistent dosing with and potency of the immunogen.\n(§3) Early arthritis symptoms, such as erythema and mild swelling, usually appear on Day 21, and on Day 28, more severe symptoms such as swelling in many digits and inflammation extending to the tarsal joint are typically present. Each limb is evaluated for severity of arthritis symptoms three times a week using a widely accepted arthritis severity score system, shown in Table 2. The scores from each of the 4 limbs are summed to yield the disease score of each mouse. […]\n(§4) Treatment was initiated when the average disease score for the study animals was greater than four. This corresponded to Day 29 in AA#79 and Day 24 in […]. By waiting until animals are symptomatic, it was ensured that the model is performed in a therapeutic rather than prophylactic mode.\n(§5) B7-H4-Ig, RPA110010, and murine B7-H4-Ig proteins were administered by intraperitoneal (IP) injection 3 times a week for a total of 8 doses. RPA110010 is an extracellular domain variant of B7-H4-Ig, SEQ ID NO:126. Control murine and human IgG proteins were given once a week for a total of 3 doses. […] All proteins were diluted to the desired concentration (500 μg in 500 μL, or 1 mg/mL) with sterile PBS immediately before injection. Vehicle control mice receive Amplimmune formulation buffer diluted 1:10 in PBS, with an injection volume of 500 μL."}, "DBA/1 mice [2]": {"system": "DBA/1 mice", "experiment": "Therapeutic CIA study AA#80 (male mice), disease score", "format": "in vivo, mouse", "details": "individual mice (Tag #)", "method": "as §1, §2, §3, §4, §5"}}, "note": "“And” between values parts separate entries of the source, which are not always exact repeats. Equal entries are not always repeated."}
{"compound": "O=P1(N(CCCl)CCCl)NCCCO1", "note": "(stereo not drawn) [CTX, Cyclophosphamide]", "values": [{"measurement": "dsDNA autoantibody (OD450 normalized against positive control diluted at 1:10000)", "setting": "MRL/lpr mice; mouse age 4 weeks (pre-treatment)", "result": "0.15 and 0.46 and 0.05 and 0.09 and 0.01"}, {"measurement": "dsDNA autoantibody (OD450 normalized against positive control diluted at 1:10000)", "setting": "MRL/lpr mice; mouse age 7 weeks", "result": "0.55 and 0.21 and 1.07 and 0.10 (2×)"}, {"measurement": "dsDNA autoantibody (OD450 normalized against positive control diluted at 1:10000)", "setting": "MRL/lpr mice; mouse age 8 weeks", "result": "2.50 and 0.33 and 2.03 and 0.17 and 0.06"}, {"measurement": "dsDNA autoantibody (OD450 normalized against positive control diluted at 1:10000)", "setting": "MRL/lpr mice; mouse age 9 weeks", "result": "3.46 and 2.09 and 2.26 and 0.79 and 0.26"}, {"measurement": "dsDNA autoantibody (OD450 normalized against positive control diluted at 1:10000)", "setting": "MRL/lpr mice; mouse age 10 weeks", "result": "1.50 and 4.05 and 2.95 and 1.97 and 0.39"}, {"measurement": "dsDNA autoantibody (OD450 normalized against positive control diluted at 1:10000)", "setting": "MRL/lpr mice; mouse age 11 weeks", "result": "2.97 and 4.67 and 3.75 and 2.21 and 0.55"}, {"measurement": "dsDNA autoantibody (OD450 normalized against positive control diluted at 1:10000)", "setting": "MRL/lpr mice; mouse age 15 weeks", "result": "2.93 and 4.87 and 2.62 and 1.76 and 1.11"}, {"measurement": "dsDNA autoantibody (OD450 normalized against positive control diluted at 1:10000)", "setting": "MRL/lpr mice; mouse age 19 weeks", "result": "2.61 and 11.76 and 3.05 and 2.58 and 1.26"}]}
{"compound": "Syngis", "values": [{"measurement": "CIA disease score", "setting": "DBA/1 mice [1]; AA#79, Study Day 12, individual mouse (Tag#)", "result": "0 (2×) and 1 (3×) and 2"}, {"measurement": "CIA disease score", "setting": "DBA/1 mice [1]; AA#79, Study Day 18, individual mouse (Tag#)", "result": "2 (4×) and 1 (2×)"}, {"measurement": "CIA disease score", "setting": "DBA/1 mice [1]; AA#79, Study Day 22, individual mouse (Tag#)", "result": "4 and 2 (4×) and 3"}, {"measurement": "CIA disease score", "setting": "DBA/1 mice [1]; AA#79, Study Day 25, individual mouse (Tag#)", "result": "2 (4×) and 5 and 3"}, {"measurement": "CIA disease score", "setting": "DBA/1 mice [1]; AA#79, Study Day 27, individual mouse (Tag#)", "result": "5 (2×) and 7 and 4 (2×) and 6"}, {"measurement": "CIA disease score", "setting": "DBA/1 mice [1]; AA#79, Study Day 29, individual mouse (Tag#)", "result": "6 (3×) and 5 and 4 and 10"}, {"measurement": "CIA disease score", "setting": "DBA/1 mice [1]; AA#79, Study Day 32, individual mouse (Tag#)", "result": "10 and 9 (2×) and 7 and 8"}, {"measurement": "CIA disease score", "setting": "DBA/1 mice [1]; AA#79, Study Day 34, individual mouse (Tag#)", "result": "10 (2×) and 9 (2×) and 6"}, {"measurement": "CIA disease score", "setting": "DBA/1 mice [1]; AA#79, Study Day 36, individual mouse (Tag#)", "result": "11 (2×) and 9 (2×) and 10 and 8"}, {"measurement": "CIA disease score", "setting": "DBA/1 mice [1]; AA#79, Study Day 39, individual mouse (Tag#)", "result": "11 (2×) and 8 and 6 and 9 and 12"}, {"measurement": "CIA disease score", "setting": "DBA/1 mice [1]; AA#79, Study Day 41, individual mouse (Tag#)", "result": "12 and 10 (2×) and 13 and 6 and 11"}, {"measurement": "CIA disease score", "setting": "DBA/1 mice [1]; AA#79, Study Day 43, individual mouse (Tag#)", "result": "12 (2×) and 11 (2×) and 6 and 10"}, {"measurement": "CIA disease score", "setting": "DBA/1 mice [1]; AA#79, Study Day 46, individual mouse (Tag#)", "result": "14 (2×) and 11 and 12 and 6 and 10"}, {"measurement": "CIA disease score", "setting": "DBA/1 mice [1]; AA#79, Study Day 48, individual mouse (Tag#)", "result": "13 (3×) and 11 and 5 and 12"}, {"measurement": "CIA disease score", "setting": "DBA/1 mice [1]; AA#79, Study Day 50, individual mouse (Tag#)", "result": "11 (2×) and 12 (3×) and 9"}, {"measurement": "CIA disease score", "setting": "DBA/1 mice [1]; AA#79, Study Day 54, individual mouse (Tag#)", "result": "13 (2×) and 12 (3×) and 8"}, {"measurement": "CIA disease score", "setting": "DBA/1 mice [1]; AA#79, Study Day 57, individual mouse (Tag#)", "result": "13 (2×) and 14 and 7 and 12 and 15"}, {"measurement": "AA#80 CIA disease scores", "setting": "DBA/1 mice [2]; Study Day 20", "result": "4 (3×) and 1 and 2 (2×) and 5 and 3 and 6"}, {"measurement": "AA#80 CIA disease scores", "setting": "DBA/1 mice [2]; Study Day 22", "result": "5 (4×) and 2 (2×) and 4 (2×) and 8"}, {"measurement": "AA#80 CIA disease scores", "setting": "DBA/1 mice [2]; Study Day 24", "result": "5 (4×) and 6 (3×) and 3 and 8"}, {"measurement": "AA#80 CIA disease scores", "setting": "DBA/1 mice [2]; Study Day 27", "result": "6 (4×) and 4 (2×) and 5 and 7 and 8"}, {"measurement": "AA#80 CIA disease scores", "setting": "DBA/1 mice [2]; Study Day 29", "result": "6 (2×) and 5 (4×) and 4 and 7 and 11"}, {"measurement": "AA#80 CIA disease scores", "setting": "DBA/1 mice [2]; Study Day 31", "result": "8 (3×) and 5 and 6 (3×) and 3 and 11"}, {"measurement": "AA#80 CIA disease scores", "setting": "DBA/1 mice [2]; Study Day 34", "result": "10 and 7 (2×) and 8 (4×) and 6 and 11"}, {"measurement": "AA#80 CIA disease scores", "setting": "DBA/1 mice [2]; Study Day 36", "result": "10 and 8 (5×) and 7 and 11 and 13"}, {"measurement": "AA#80 CIA disease scores", "setting": "DBA/1 mice [2]; Study Day 38", "result": "11 (2×) and 6 (2×) and 8 and 7 (2×) and 10 (2×) and 12"}, {"measurement": "AA#80 CIA disease scores", "setting": "DBA/1 mice [2]; Study Day 41", "result": "12 and 13 (2×) and 7 and 8 and 9 and 10 (2×) and 14"}, {"measurement": "AA#80 CIA disease scores", "setting": "DBA/1 mice [2]; Study Day 44", "result": "10 and 14 and 7 (3×) and 8 and 11 and 12 and 13"}]}
